According to patent US8486945B2, “Heterocyclic inhibitors of an Hh-signal cascade, medicinal compositions based thereon and methods for treating diseases caused by the aberrant activity of an Hh-signal system” (priority 2007, dated 2013):

Columns and labels:
Hh-signalling cascade = assay: Inhibition of SHh-induced alkaline phosphatase in C3H10T1/2 cells (Hh-signalling cascade inhibition); assay type: cell-based; conditions: Mus musculus, C3H 10T1/2, half maximal inhibition of SHh (0.3 μg/ml) stimulation of cell alkaline phosphatase
Excerpt: C3H10T1/2 Cells were used for identification of inhibitors of SHh-protein signaling cascade. SHh-protein activates C3H10T1/2 cells, that leads to their osteogenic differentiation [1) Kinto N., Iwamoto M., Enomoto-Iwamoto M., Noji S., Ohuchi H., Yoshioka H., Kataoka H., Wada Y., Yuhao G., Takahashi H. E., Yoshiki S., Yamaguchi A. Fibroblasts expressing Sonic hedgehog induce osteoblast differentiation and ectopic bone formation. FEBS Lett. 1997; 404(2-3): 319-23. 2) Spinella-Jaegle S., Rawadi G., Kawai S., Gallea S., Faucheu C., Mollat P., Courtois B., Bergaud B., Ramez V., Blanchet A. M., Adelmant G., Baron R., Roman-Roman S. Sonic hedgehog increases the commitment of pluripotent mesenchymal cells into the osteoblastic lineage and abolishes adipocytic differentiation. J. Cell Sci. 2001; 114(Pt 11): 2085-94] and, in particular, to expression enhancement of alkaline phosphatase enzyme.
The cells were cultivated in DMEM medium with 10% embryonal calfish serum in incubator at 37° C., 100% humidity and 5% CO2 content. The cells were placed in 384-well plates and left for night. On the next day the tested compounds in concentration of 10 μM were added to the cells, incubated for 30 min, then recombinant (R & D Systems, USA) SHh protein in concentration of 0.3 μg/ml was added and incubation was continued for 3 days. Cells with DMSO instead of a test compound and cells without SHh protein were used as test control. For determination of the cell alkaline phosphatase activity the cells were lysed in the buffer containing 0.2% Triton-X100, lisates were incubated together with proluminescent substrate CSPD (Applied Biosystems, USA) and the resultant luminescence was measured using reader VICTOR^2V (PerkinElmer, USA).
The ability of the compounds to inhibit Hh-signalling cascade was determined using C3H10T1/2 cells in 384-well plates as described in example 1. The compounds were added in triplicates in various concentrations, prepared by multiple dilution of starting solutions (concentration dependences of cell alkaline phosphatase inhibition induced by the addition of tested compounds are shown in FIG. 1). Activity of the compounds was characterized by their concentrations produced half maximal inhibition of stimulation of cell alkaline phosphatase SHh (IC50).

## Cc1nn(CC(=O)N2CCN(c3cccc(Cl)c3)CC2)c(=O)c2nn(-c3ccccc3)c(C)c12 [I-1002, 2-phenyl-3,4-dimethyl-6-{2-[4-(3-chlorophenyl)piperazin-1-yl]-2-oxoethyl}-2,6-dihydro-7H-pyrazolo[3,4-d]pyridazin-7-one]
Hh-signalling cascade
  IC50: < 0.5 µM
other
  melting point: 257 to 259 °C

## Cc1nn(CC(=O)N2CCN(c3ccccc3)CC2)c(=O)c2nn(-c3ccccc3)c(C)c12 [I-1003, 2-Phenyl-3,4-dimethyl-6-{2-[4-phenylpiperazin-1-yl]-2-oxoethyl}-2,6-dihydro-7H-pyrazolo[3,4-c]pyridazin-7-one]
Hh-signalling cascade
  IC50: < 0.5 µM
other
  melting point: 252 to 254 °C

## Cc1cccc(N2CCN(C(=O)Cn3nc(C)c4c(C)n(-c5ccccc5)nc4c3=O)CC2)c1C [I-1004, 2-Phenyl-3,4-dimethyl-6-{2-[4-(2,3-dimethylphenyl)piperazin-1-yl]-2-oxoethyl}-2,6-dihydro-7H-pyrazolo[3,4-d]pyridazin-7-one]
Hh-signalling cascade
  IC50: < 0.5 µM
other
  melting point: 249 to 251 °C

## Cc1ccc(C)c(N2CCN(C(=O)Cn3nc(C)c4c(C)n(-c5ccccc5)nc4c3=O)CC2)c1 [I-1005, 2-Phenyl-3,4-dimethyl-6-{2-[4-(2,5-dimethylphenyl)piperazin-1-yl]-2-oxoethyl}-2,6-dihydro-7H-pyrazolo[3,4-d]pyridazin-7-one]
Hh-signalling cascade
  IC50: < 0.5 µM
other
  melting point: 232 to 234 °C

## Cc1nn(CC(=O)N2CCN(c3ccc(F)cc3)CC2)c(=O)c2nn(-c3ccccc3)c(C)c12 [I-1006, 2-Phenyl-3,4-dimethyl-6-{2-[4-(4-fluorophenyl)piperazin-1-yl]-2-oxoethyl}-2,6-dihydro-7H-pyrazolo[3,4-d]pyridazin-7-one]
Hh-signalling cascade
  IC50: < 0.5 µM
other
  melting point: 257 to 259 °C

## Cc1nn(CC(=O)N2CCN(c3ccccc3F)CC2)c(=O)c2nn(-c3ccccc3)c(C)c12 [I-1007, 2-Phenyl-3,4-dimethyl-6-{2-[4-(2-fluorophenyl)piperazin-1-yl]-2-oxoethyl}-2,6-dihydro-7H-pyrazolo[3,4-d]pyridazin-7-one]
Hh-signalling cascade
  IC50: < 0.5 µM
other
  melting point: 240 to 242 °C

## Cc1nn(C(C)C(=O)N2CCN(c3ccccc3)CC2)c(=O)c2nn(-c3ccccc3)c(C)c12 (centres unmarked) [I-1008, 2 Phenyl-3,4-dimethyl-6-[1-methyl-2-(4-phenylpiperazin-1-yl)-2-oxoethyl]-2,6-dihydro-7H-pyrazolo[3,4-d]pyridazin-7-one]
Hh-signalling cascade
  IC50: < 0.5 µM
other
  melting point: 193 to 195 °C

## Cc1nn(C(C)C(=O)N2CCN(c3cccc(Cl)c3)CC2)c(=O)c2nn(-c3ccccc3)c(C)c12 (centres unmarked) [I-1009, 2-Phenyl-3,4-dimethyl-6-{1-methyl-2-[4-(3-chlorophenyl)piperazin-1-yl]-2-oxoethyl}-2,6-dihydro-7H-pyrazolo[3,4-d]pyridazin-7-one]
Hh-signalling cascade
  IC50: < 0.5 µM
other
  melting point: 194 to 196 °C

## Cc1nn(C(C)C(=O)N2CCN(C3CCCCC3)CC2)c(=O)c2nn(-c3ccccc3)c(C)c12 (centres unmarked) [I-1010, 2-Phenyl-3,4-dimethyl-6-{1-methyl-2-[4-cyclohexylpiperazin-1-yl]-2-oxoethyl}-2,6-dihydro-7H-pyrazolo[3,4-d]pyridazin-7-one]
Hh-signalling cascade
  IC50: < 0.5 µM
other
  melting point: 132 to 135 °C

## Cc1cccc(N2CCN(C(=O)C(C)n3nc(C)c4c(C)n(-c5ccccc5)nc4c3=O)CC2)c1C (centres unmarked) [I-1011, 2-Phenyl-3,4-dimethyl-6-{1-methyl-2-[4-(2,3-dimethylphenyl)piperazin-1-yl]-2-oxoethyl}-2,6-dihydro-7H-pyrazolo[3,4-d]pyridazin-7-one]
Hh-signalling cascade
  IC50: < 0.5 µM
other
  melting point: 136 to 138 °C

## Cc1nn(C(C)C(=O)N2CCN(Cc3ccccc3)CC2)c(=O)c2nn(-c3ccccc3)c(C)c12 (centres unmarked) [I-1012, 2-Phenyl-3,4-dimethyl-6-{1-methyl-2-[4-benzylpiperazin-1-yl]-2-oxoethyl}-2,6-dihydro-7H-pyrazolo[3,4-d]pyridazin-7-one]
Hh-signalling cascade
  IC50: < 0.5 µM
other
  melting point: 152 to 154 °C

## O=C(c1cc2sccc2n1Cc1ccc(F)cc1)N1CCC(C(=O)N2CCOCC2)CC1 [V-1001, [4-(4-Fluorobenzyl)-4H-thieno[3,2-b]pyrrol-5-yl][4-(morpholine-4-carbonyl)piperidin-1-yl]methanone]
Hh-signalling cascade
  IC50: < 0.5 µM
other
  melting point: 120 to 122 °C

## Cc1cc(C)cc(NC(=O)C2CCN(C(=O)c3cc4sccc4n3Cc3ccc(F)cc3)CC2)c1 [V-1002, 1-[4-(4-Fluorobenzyl)-4H-thieno[3,2-b]pyrrole-5-carbonyl]piperidine-4-carboxylic acid (3,5-dimethylphenyl)amide]
Hh-signalling cascade
  IC50: < 0.5 µM
other
  melting point: 203 to 205 °C

## COc1ccc(Cn2c(C(=O)N3CCC(C(=O)N4CCN(C)CC4)CC3)cc3sccc32)cc1 [V-1053, [4-(4-Methoxybenzyl)-4H-thieno[3,2-b]pyrrol-5-yl]-[4-(4-methylpiperazine-1-carbonyl)piperidin-1-yl]methanone]
Hh-signalling cascade
  IC50: < 0.5 µM

## CN1CCN(C(=O)C2CCN(C(=O)c3cc4sccc4n3Cc3ccc(N(C)C)cc3)CC2)CC1 [V-1054, [4-(4-Dimethylaminobenzyl)-4H-thieno[3,2-b]pyrrol-5-yl]-[4-(4-methylpiperazine-1-carbonyl)piperidin-1-yl]methanone]
Hh-signalling cascade
  IC50: < 0.5 µM

## CN1CCN(C(=O)C2CCN(C(=O)c3cc4sccc4n3Cc3ccc4c(c3)OCO4)CC2)CC1 [V-1055, [4-(3,4-Methylendioxybenzyl)-4H-thieno[3,2-b]pyrrol-5-yl]-[4-(4-methylpiperazine-1-carbonyl)piperidin-1-yl]methanone]
Hh-signalling cascade
  IC50: < 0.5 µM

## CCOc1ccc(NC(=O)c2ccnc(N3CCC(C(=O)Nc4ccc(F)cc4)CC3)c2)cc1 [VI-1007, 3,4,5,6-Tetrahydro-2H-[1,2′]bipyridinyl-4,4′-carboxylic acid 4′-[(4-ethoxyphenyl)amide] 4-[(4-fluorophenyl)amide]]
Hh-signalling cascade
  IC50: < 5 µM

## CS(=O)(=O)N1CCCc2cc(C(=O)Nc3ccc4c(c3)OCO4)ccc21 [VII-1005, 1-Methylsulfonyl-1,2,3,4-tetrahydroquinoline-6-carboxylic acid (benzo[1,3]dioxol-5-yl)amide]
Hh-signalling cascade
  IC50: < 0.5 µM

## O=C(Nc1ccc(F)cc1)c1ccc2c(c1)CCCN2S(=O)(=O)c1ccccc1 [VII-1012, 1-Phenylsulfonyl-1,2,3,4-tetrahydroquinoline-6-carboxylic acid (4-fluorophenyl)amide]
Hh-signalling cascade
  IC50: < 5 µM

## COc1ccc(NC(=O)c2ccc3c(c2)CCCN3S(=O)(=O)c2ccc(C)cc2)cc1 [VII-1014, 1-Tosyl-1,2,3,4-tetrahydroquinoline-6-carboxylic acid (4-methoxyphenyl)amide]
Hh-signalling cascade
  IC50: < 5 µM

## Cc1ccc(NC(=O)c2ccc3c(c2)CCCN3S(=O)(=O)c2ccc(Cl)cc2)cc1C [VII-1017, 1-(4-Chlorophenylsulfonyl)-1,2,3,4-tetrahydroquinoline-6-carboxylic acid (3,4-dimethylphenyl)amide]
Hh-signalling cascade
  IC50: < 0.5 µM

## Cc1ccc(NC(=O)c2ccc3c(c2)CCCN3S(=O)(=O)c2ccc(Br)cc2)cc1 [VII-1020, 1-(4-Bromophenylsulfonyl)-1,2,3,4-tetrahydroquinoline-6-carboxylic acid p-tolylamide]
Hh-signalling cascade
  IC50: < 5 µM

## CCS(=O)(=O)N1CCCc2cc(C(=O)Nc3ccccc3F)ccc21 [VII-1025, 1-Ethylsulfonyl-1,2,3,4-tetrahydroquinoline-6-carboxylic acid (2-fluorophenyl)amide]
Hh-signalling cascade
  IC50: < 5 µM

## CN1CCc2c(sc(NC(=O)C3CC3)c2-c2nc3ccccc3s2)C1 [VIII-1003, Cyclopropanecarboxylic acid (3-benzo[d]thiazol-2-yl-6-methyl-4,5,6,7-tetrahydrothieno[2,3-c]pyridin-2-yl)amide]
Hh-signalling cascade
  IC50: < 5 µM

## CC(=O)N1CCc2c(sc(NC(=O)C3CCCCC3)c2-c2nc3ccccc3s2)C1 [VIII-1016, Cyclohexanecarboxylic acid (6-acetyl-3-benzo[d]thiazol-2-yl-4,5,6,7-tetrahydrothieno[2,3-c]pyridin-2-yl)amide]
Hh-signalling cascade
  IC50: < 5 µM

## CC(=O)N1CCc2c(sc(NC(=O)Cc3ccccc3)c2-c2nc3ccccc3s2)C1 [VIII-1017, N-(6-Acetyl-3-benzo[d]thiazol-2-yl-4,5,6,7-tetrahydrothieno[2,3-c]pyridin-2-yl)-2-phenylacetamide]
Hh-signalling cascade
  IC50: < 50 µM

## COC(=O)c1ccc(C(=O)Nc2sc3c(c2-c2nc4ccccc4s2)CCN(C(C)C)C3)cc1 [VIII-1025]
Hh-signalling cascade
  IC50: < 50 µM

## CN1CCc2c(sc(NC(=O)c3cccc(C(F)(F)F)c3)c2-c2nc3ccccc3s2)C1 [VIII-1026, N-(3-(Benzo[d]thiazol-2-yl)-6-methyl-4,5,6,7-tetrahydrothieno[2,3-c]pyridin-2-yl)-3-trifluoromethylbenzamide]
Hh-signalling cascade
  IC50: < 50 µM
